Experimental data published in patent US20240216281A1, “MANUFACTURING METHOD OF MEDICATION” (YUNG SHIN PHARM. IND. CO., LTD., priority 2022, published 2024).

Test: particle size distribution (PSD) of crystals within the medication
Format: physicochemical
Conditions: first embodiment: dry powder filling technology

Row | Structure (SMILES) | 10% of the crystals having a particle size (D10) of less than | 50% of the crystals having a particle size (D50) of less than | 90% of the crystals having a particle size (D90) of less than | 90% of the crystals having a particle size (D90) of less than (unit not given)
1 | OCc1ccc(-c2nn(Cc3ccccc3)c3ccccc23)o1 [YC-1 compound] | less than 0.648 μm | less than 14.061 μm | less than 215.136 μm | 
2 | CC1(C)O[C@@H]2C[C@H]3[C@@H]4CCC5=CC(=O)C=C[C@]5(C)[C@@]4(F)[C@@H](O)C[C@]3(C)[C@]2(C(=O)CO)O1 [triamcinolone acetonide] | less than 4.444 μm | less than 11.189 μm |  | less than 30.504
